{"source": "patent US6110491A", "about": "“Compound-loaded liposomes and methods for their preparation” (Hermes Biosciences, Inc., priority 1997, dated 2000)", "origin": "cited, not measured here", "details": "cited from earlier work; for pH-dependent solubility: 37° C.", "note": "Like-named read-outs stand apart in the source and are kept apart here.", "data": [{"smiles": "Nc1cc(-c2ccncc2)c[nH]c1=O", "note": "[amrinone]", "values": [{"measurement": "pH dependent solubility", "setting": "pH 4.1", "result": 25, "unit": "mg/ml"}, {"measurement": "pH dependent solubility", "setting": "pH 6", "result": 0.9, "unit": "mg/ml"}, {"measurement": "pH dependent solubility", "setting": "pH 8", "result": 0.9, "unit": "mg/ml"}]}, {"smiles": "Nc1nc(O)c2ncn(COC(CO)CO)c2n1", "note": "[gancyclovir]", "values": [{"measurement": "solubility in water", "setting": "alkaline pH", "result": "> 100", "unit": "mg/mL"}, {"measurement": "solubility in water", "setting": "pH 7.4", "result": 2.5, "unit": "mg/mL"}]}, {"smiles": "CC(C)Cc1ccc(C(C)C(=O)O)cc1", "note": "(centres unmarked) [ibuprofen]", "values": [{"measurement": "solubility (in words)", "setting": "alkaline pH", "result": "soluble at alkaline pH"}, {"measurement": "solubility (in words)", "setting": "neutral pH", "result": "poorly soluble at neutral pH"}]}, {"smiles": "CCn1cc(C(=O)O)c(=O)c2cc(F)c(N3CCNCC3)cc21", "note": "[norfloxacin]", "values": [{"measurement": "pH-dependent solubility", "setting": "pH 6.5", "result": 2.8, "unit": "mg/ml"}, {"measurement": "pH-dependent solubility", "setting": "pH 7.0", "result": 1.5, "unit": "mg/ml"}, {"measurement": "pH-dependent solubility", "setting": "pH 8.0", "result": 1.9, "unit": "mg/ml"}, {"measurement": "pH-dependent solubility", "setting": "pH <5.5", "result": "> 40", "unit": "mg/ml"}]}]}
